Results reported in patent US11668702B2, “Regulation of fungal fruiting body development” (The Chinese University of Hong Kong, priority 2017, dated 2023).
Entries after “also recorded” stand apart in the source; their conditions may differ.

What was measured:
C. cinerea [1] = experiment: C. cinerea fruiting body development, solution spread on YMG agar surface before inoculation (Example 5); type: cell-based, Coprinopsis cinerea
Description: FIG. 9: Effect on C. cinerea fruiting body development by GSK3 inhibitor-LiCl at different concentration. Water or LiCl solution was spread on the surface of YMG agar, before inoculation. After 6-days all dark incubation in 37° C., the plates were transferred to 25° C. with 12-hours light and 12-hours dark cycle (light/dark cycle) for 5-days incubation. […] Initials and hyphal knots formed on the plates treated with 0.75 g/L and 1.5 g/L LiCl respectively.
FIG. 10: Effect on C. cinerea fruiting body development by GSK3 inhibitor-CHIR-99021 HCl at different concentration. Water or CHIR-99021 HCl solution was spread on the surface of YMG agar, before inoculation. After the mycelium reached the edge of plates, the plates were transferred to 25° C. with light/dark cycle for 6-days incubation.
FIG. 11: Effect on C. cinerea fruiting body development by GSK3 activator-Cisplatin at different concentration. Water or Cisplatin solution was spread on the surface of YMG agar, before inoculation. After the mycelium reached the edge of plates, the plates were transferred to 25° C. with light/dark cycle. […] Young fruiting body developed on the control YMG plates treated with water.
Two GSK3 inhibitors (LiCl and CHIR-99021 HCl) and one GSK3 activator (Cisplatin) were tested in Coprinopsis cinerea, and one GSK3 inhibitor (LiCl) was tested in Pleurotus djamor (commonly known as the pink oyster mushroom). Belonging to the same order Agaricales, these two tested mushroom species are of two different families, Psathyrellaceae and Pleurotaceae, respectively.
Water or LiCl solution was spread on the surface of YMG agar before inoculation of C. cinerea. After 6-days all dark incubation in 37° C., the plates were transferred to 25° C. with 12-hours light and 12-hours dark cycle (light/dark cycle) for 5-days incubation. […] Initials and hyphal knots were formed on the plates treated with 0.75 g/L and 1.5 g/L LiCl respectively.
Water or CHIR-99021 HCl solution was spread on the surface of YMG agar before inoculation of C. cinerea. After the mycelium reached the edge of plates, the plates were transferred to 25° C. with light/dark cycle for 6-days incubation.
Water or Cisplatin solution was spread on the surface of YMG agar before C. cinerea inoculation. After the mycelium reached the edge of plates, the plates were transferred to 25° C. with light/dark cycle. […] Young fruiting body developed on the control YMG plates treated with water.

C. cinerea [2] = experiment: C. cinerea on YMG agar treated with CHIR-99021 HCl (Example 2); type: cell-based, Coprinopsis cinerea
Description: Another GSK-3 inhibitor was used to confirm inhibition of LiCl on GSK-3. C. cinerea was cultivated on YMG agar and treated with water for control group and 1 uM, 100 uM and 500 uM of CHIR-99021 HCl for experimental group.

Pleurotus eryngii = details: cited from earlier work
Pleurotus djamor [3] = experiment: Self-healing ability and stability of mycelium blocks; details: 2 g/L LiCl in substrate; following 30 days
Description: FIG. 8: Comparison of the self-healing ability between the mycelium blocks treated by heating and LiCl. The two group of mycelium blocks (e.g., Pleurotus djamor blocks) were broken in the middle. In each group, 3 blocks were spread with the solution of YMG broth and the other 3 blocks with ddH2O on the broken sites. The two parts of one block were incubated together for 3 days.
The self-healing ability and stability of the living material is tested by comparison of the self-healing ability between the mycelium blocks treated by heating and LiCl. To prepare the demo mycelium blocks, water (as in group “Heat”) or 2 g/L LiCl water solution (as in group “Lithium”), sawdust, wheat bran and calcium carbonate were mixed as substrate and autoclaved the substrate. Then the Pleurotus djamor was inoculated to the substrate, and incubated under 27° C. continuous dark for 7 days. Then 30 g of the mixture of mycelium and substrate were transferred into molds of block, with same volume and pressure. The blocks were incubated under 27° C. continuous dark for another 7 days. Then the blocks of “Heat” group were dried by oven, and the block of “Lithium” group were dried by dehumidifier, to the same mass of the “Heat” group.
The two group of mycelium blocks were broken in the middle. In each group, 3 blocks were spread with the solution of YMG broth and the other 3 blocks with ddH2O on the broken sites. […]

C. cinerea [4] = experiment: Fruiting body development of C. cinerea on YMG agar with LiCl in or under the agar
C. cinerea [5] = experiment: Mycelial growth rate of LiCl treated C. cinerea on YMG agar; type: cell-based, Coprinopsis cinerea
Description: FIG. 3: Mycelial growth of C. cinerea with different doses of LiCl, biological triplicates were used for mean calculation.
The mycelial growth rate was measured for the LiCl treated C. cinerea. Biological triplicates were cultivated on YMG agar plates at 37° C. in darkness, treated with different doses of LiCl. The mycelium growth was recorded for 4 days.

Pleurotus djamor [6] = experiment: Pleurotus djamor fruiting body development, LiCl in YMG agar; type: cell-based; details: 2 g/L LiCl in YMG agar; 10 days dark at 27° C., 10 days light/dark cycle at 25° C.
Description: FIG. 12: Effect on Pleurotus djamor fruiting body development by GSK3 inhibitor-LiCl at different concentration. LiCl was added to YMG agar medium before autoclave. After 10-days all dark incubation in 27° C., the plates were transferred to 25° C. with 12-hours light and 12-hours dark cycle (light/dark cycle) for 10-days incubation. Mature fruiting bodies developed on the control plates.
LiCl was added to YMG agar medium before autoclave. After 10-days all dark incubation in 27° C., the plates were transferred to 25° C. with 12-hours light and 12-hours dark cycle (light/dark cycle) for 10-days incubation. Mature fruiting bodies developed on the control plates.

[7] = cited from earlier work
C. cinerea [8] = experiment: LiCl added at different developmental stages of C. cinerea; type: cell-based, Coprinopsis cinerea
Description: FIG. 4: The development of C. cinerea treated with 0.1 ml of 3 g/L LiCl at different stage.
FIG. 5: Life cycle of the mushroom-forming fungi, and the sensitive windows to the GSK-3 inhibitors (stages in grey). […] These stages are sensitive windows.
The effect of LiCl at different developmental stages of C. cinerea were tested. 0.1 ml of 3 g/L LiCl were added to the agar plate.

[9] = system: GSK-3 and its target genes; experiment: Quantitative real-time PCR of GSK-3 and its target genes under LiCl treatment; type: cell-based, Coprinopsis cinerea
Description: FIG. 6: The gene expression levels are indicated by the abundance of segments on the cDNA, by real-time PCR. […] Glycogen synthase (CC1G_01973); GSK-3 protein kinase (CC1G_03802); eukaryotic translation initiation factor 1 (CC1G_03881); Uncharacterized protein with Ricin B-type lectin domain (CC1G_05298); Translation initiation factor eIF2 gamma subunit (CC1G_09429).
The expression levels of targets genes of GSK-3 were measured to explore the mechanism of LiCl. To characterize the gene expression profile changes, quantitative real-time PCR analysis was performed. the kinase and its substrates by Orthologue searching were selected. A total of 83 GSK-3 substrates reported in human and mouse were mapped to the C. cinerea genome, and 52 orthologues were identified. Among them, CC1G_01973, CC1G_03881, and CC1G_09429 were selected for real-time PCR analysis. Samples treated by different doses of LiCl were frozen and homogenized in liquid nitrogen to extract total RNAs. […] Decreased eIF1 gene expression supports that LiCl block the fruiting through inhibiting GSK-3 activity in initiating the translation of key protein. Binding of eIF1 to 40S ribosome is key to maintain an open conformation on 40S ribosomal subunit to initiate translation (Passmore et al. 2007). Low level of eIF1 was also found to lower mRNA translation in Saccharomyces cerevisiae (You et al. 2010).

C. cinerea [10] = experiment: LiCl clearance and fruiting body formation (Example 3); type: cell-based, Coprinopsis cinerea; details: washing mycelium and substrate with ddH2O or transfer onto clean substrate
Source text: The LiCl inhibition of C. cinerea mycelium can be relieved by removing LiCl or diluting the concentration of LiCl, for example, by washing the mycelium and substrate with ddH2O, or by transferring the mycelium onto a clean substrate.

[11] = during spa use (PubChem Compound Database); cited from earlier work
[12] = different doses of LiCl, real-time PCR

With `N.N.[Cl][Pt][Cl]` [Cisplatin, cis-diamminedichloridoplatinum(II)] the “Fruiting body development stage reached” value (C. cinerea [1]; 1 ml saturated Cisplatin, 6 days light/dark cycle at 25° C.) was “had fruiting body and began autolysis”.
With `Cc1cnc(-c2cnc(NCCNc3ccc(C#N)cn3)nc2-c2ccc(Cl)cc2Cl)[nH]1.Cl.Cl.Cl` [CHIR-99021 HCl, 6-[[2-[[4-(2,4-Dichlorophenyl)-5-(5-methyl-1H-imidazol-2-yl)-2-pyrimidinyl]amino]ethyl]amino]-3-pyridinecarbonitrile trihydrochloride] the Fruiting body development (C. cinerea [2]; 1 uM CHIR-99021 HCl) was “developed initials”, the Fruiting body development (C. cinerea [2]; 100 uM CHIR-99021 HCl) was “developed initials” and the Fruiting body formation (C. cinerea [2]; concentration not given) was “inhibits fruiting body formation”. For the same compound, the Fruiting body development (C. cinerea [2]; higher CHIR-99021 HCl concentration (500 uM group)) was “inhibited fruiting”, the “Fruiting body development stage reached” value (C. cinerea [1]; 1 μM CHIR-99021 HCl, 6 days light/dark cycle at 25° C.) was “Young fruiting bodies developed” and the “Fruiting body development stage reached” value (C. cinerea [1]; 100 μM CHIR-99021 HCl, 6 days light/dark cycle at 25° C.) was “developed primordium”. The “Fruiting body development stage reached” value (C. cinerea [1]; 500 μM CHIR-99021 HCl, 6 days light/dark cycle at 25° C., trihydrochloride) was “remained arrested in mycelium stage”.
In the case of `O=C([O-])[O-].[Li+].[Li+]` [lithium carbonate], the “Lithium carbonate concentration at which fruiting body cannot form” value (Pleurotus eryngii) is listed as “higher than 0.75 mM”.
With `[Cl-].[Li+]` [LiCl, Lithium chloride] the “Initials and fruiting bodies on mycelium blocks” value (Pleurotus djamor [3]) was “clear of initials and fruiting bodies”, the “Effect on Fruiting body development” value (C. cinerea [4]; 1.5 g/L LiCl in agar) was “No” and the “Effect on Fruiting body development” value (C. cinerea [4]; 1.5 g/L LiCl under agar (concentration calculated with volume of sum of agar and H2O), 8 days) was “produced only a few initials and stage 1 primordia; also recorded: Retarded”. For the same compound, the “Effect on Fruiting body development” value (C. cinerea [4]; 3 g/L LiCl in agar) was “absence of fruiting body and No”, the “Effect on Fruiting body development” value (C. cinerea [4]; 3 g/L LiCl under agar (concentration calculated with volume of sum of agar and H2O)) was “No” and the “Effect on Fruiting body development” value (C. cinerea [4]; 6 g/L LiCl in agar) was “No”. For the same compound, the “Effect on Fruiting body development” value (C. cinerea [4]; 6 g/L LiCl under agar (concentration calculated with volume of sum of agar and H2O)) was “No”, the Fruiting body initiation (C. cinerea [4]; LiCl concentration higher than 1.5 g/L, in the following 30 days) was “No initiation was observed” and the “Fruiting body initiation, dose dependence” value (C. cinerea [4]; LiCl in agar or under agar) was “inhibited the fruiting body initiation in a dose-dependent manner”. The “Effect on Mycelium growth” value (C. cinerea [5]; 1.5 g/L LiCl in agar) was “higher than control; also recorded: Acceleration”, the “Effect on Mycelium growth” value (C. cinerea [5]; 3 g/L LiCl in agar) was “higher than control; also recorded: acceleration in mycelium growth rate” and the “Effect on Mycelium growth” value (C. cinerea [5]; 6 g/L LiCl in agar) was “inhibit the growth of mycelium; also recorded: Retarded”. The Fruiting body development (Pleurotus djamor [6]) was “failed to develop fruiting body”, the Solubility [7] was “soluble in water, ethanol, acetone, pyridine and nitrobenzene” and the “Fruiting body development stage reached” value (C. cinerea [1]; 0.375 g/L LiCl, 5 days light/dark cycle at 25° C.) was “Primordium were formed”. For the same compound, the “Fruiting body development stage reached” value (C. cinerea [1]; 0.75 g/L LiCl, 5 days light/dark cycle at 25° C.) was “Initials”, the “Fruiting body development stage reached” value (C. cinerea [1]; 1.5 g/L LiCl, 5 days light/dark cycle at 25° C.) was “hyphal knots” and the “Fruiting body development stage reached” value (C. cinerea [1]; 3 g/L LiCl, 5 days light/dark cycle at 25° C.) was “arrested in mycelium stage”. The “Mycelium growth on plate” value (C. cinerea [1]; 6 g/L LiCl) was “stopped before reaching the edge of plates”, the “Fruiting body development stage reached” value (C. cinerea [1]; 6 g/L LiCl, 5 days light/dark cycle at 25° C.) was “arrested in mycelium stage” and the “Further development after LiCl addition” value (C. cinerea [8]; 0.1 ml of 3 g/L LiCl added at initial) was “led to the arrest of their development; also recorded: led to inhibition on further development; also recorded: resulted in arrestment in fruiting body development”. For the same compound, the “Further development after LiCl addition” value (C. cinerea [8]; 0.1 ml of 3 g/L LiCl added at stage-1 primordium) was “led to the arrest of their development; also recorded: led to inhibition on further development; also recorded: resulted in arrestment in fruiting body development”, the “Further development after LiCl addition” value (C. cinerea [8]; 0.1 ml of 3 g/L LiCl added at stage-2 primordium) was “could continue to develop into fruiting bodies; also recorded: cannot inhibit the fruiting body development” and the “Further development after LiCl addition” value (C. cinerea [8]; 0.1 ml of 3 g/L LiCl added at young fruiting body) was “could continue to develop into fruiting bodies; also recorded: cannot inhibit the fruiting body development”. For the same compound, the “Further development after LiCl addition” value (C. cinerea [8]; LiCl intervention at hyphal knot) was “resulted in arrestment in fruiting body development”, the “Further development after LiCl addition” value (C. cinerea [8]; LiCl intervention at mycelium) was “resulted in arrestment in fruiting body development” and the GSK-3 gene expression ([9]; 3 g/L LiCl mixed in the substrate) was “general decrease in GSK-3 gene expression”. For the same compound, the “Expression level of GSK-3 gene and selected GSK-3 target genes” value [9, 12] was “could regulate the expression; also recorded: change the expression level”, the eIF1 gene expression [9, 12] was “decreased with increase of LiCl concentration” and the “Fruiting after removing or diluting LiCl” value (C. cinerea [10]) was “fruiting bodies develops again”.
In the case of `[Li]` [Lithium], the Skin absorption [11] is listed as “not absorbed through the skin”.
